Assay results reported in article PMC3575848 (Nucleic Acids Research, 2012).

Key:
Type in all cases: binding
EcoDRS [1] = biological target: T1, EcoDRS (Escherichia coli, UniProt P21889); test: isothermal titration calorimetry
HsaDRS2 [2] = biological target: T2, HsaDRS2 (Homo sapiens, UniProt Q6PI48); test: thermal shift by dynamic light scattering and differential scanning fluorimetry; details: protein 3 mg/ml, temperature gradient
T2 sequence (Q6PI48 41-645): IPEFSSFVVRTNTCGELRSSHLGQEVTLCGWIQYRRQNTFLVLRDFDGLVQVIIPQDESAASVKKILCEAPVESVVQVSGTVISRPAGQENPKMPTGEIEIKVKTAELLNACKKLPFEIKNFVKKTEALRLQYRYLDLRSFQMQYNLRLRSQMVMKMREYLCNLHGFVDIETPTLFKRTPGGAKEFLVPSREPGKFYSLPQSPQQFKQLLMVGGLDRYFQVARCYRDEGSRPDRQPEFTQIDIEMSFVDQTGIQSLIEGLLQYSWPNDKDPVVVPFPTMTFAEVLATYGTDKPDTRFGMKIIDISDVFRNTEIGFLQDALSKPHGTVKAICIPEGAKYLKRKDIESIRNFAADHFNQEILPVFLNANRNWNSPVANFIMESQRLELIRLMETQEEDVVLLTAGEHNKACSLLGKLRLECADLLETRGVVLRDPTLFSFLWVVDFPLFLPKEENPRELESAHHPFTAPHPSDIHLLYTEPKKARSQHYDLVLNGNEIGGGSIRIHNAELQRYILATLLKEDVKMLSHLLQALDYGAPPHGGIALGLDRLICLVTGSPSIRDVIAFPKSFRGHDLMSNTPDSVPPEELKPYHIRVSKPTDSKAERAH

HsaDRS2 [3] = biological target: T2, HsaDRS2; test: isothermal titration calorimetry
EcoDRS [4] = biological target: T1, EcoDRS; test: thermal shift by dynamic light scattering; details: protein 3 mg/ml, temperature gradient

T1 sequence (P21889 whole entry): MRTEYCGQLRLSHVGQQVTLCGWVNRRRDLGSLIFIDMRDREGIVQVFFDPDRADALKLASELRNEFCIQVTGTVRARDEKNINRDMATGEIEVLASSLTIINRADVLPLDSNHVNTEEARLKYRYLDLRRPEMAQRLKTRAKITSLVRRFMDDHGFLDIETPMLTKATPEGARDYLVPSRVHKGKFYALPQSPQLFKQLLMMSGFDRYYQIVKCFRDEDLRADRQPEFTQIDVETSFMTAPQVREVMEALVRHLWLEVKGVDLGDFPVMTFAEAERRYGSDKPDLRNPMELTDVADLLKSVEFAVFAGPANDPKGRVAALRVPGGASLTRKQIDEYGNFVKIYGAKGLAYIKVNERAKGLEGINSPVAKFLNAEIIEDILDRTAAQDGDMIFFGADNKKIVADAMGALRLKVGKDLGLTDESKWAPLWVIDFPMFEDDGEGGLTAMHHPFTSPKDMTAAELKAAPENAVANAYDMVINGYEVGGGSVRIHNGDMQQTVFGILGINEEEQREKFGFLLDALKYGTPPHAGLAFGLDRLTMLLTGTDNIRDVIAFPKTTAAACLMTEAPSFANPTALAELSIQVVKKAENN

Nc1ncnc2c1ncn2[C@@H]1O[C@H](COS(=O)(=O)NC(=O)[C@@H](N)CC(=O)O)[C@@H](O)[C@H]1O [Asp–AMS, 5′-O-[N-(L-aspartyl)sulfamoyl] adenosine]
Kd (EcoDRS [1]): 2.95 ± 1.34 nM
Tm (HsaDRS2 [2]): Significant stabilization was observed in the presence of Asp–AMS
Kd (HsaDRS2 [3]): 17.5 ± 12 nM
Tm (EcoDRS [4]): only Asp–AMS (dashed grey line) influences the thermostability of the two enzymes positively
